In US5045302A, “Ligands and cationic complexes thereof with technetium-99m” (priority 1988, dated 1991):

Experiment: Rat biodistribution of Tc-99m complexes

Blood (2 min p.i.)	Heart (2 min p.i.)	Heart/Blood Counts/Gram Ratio (2 min p.i.)	Heart/Liver Counts/Gram Ratio (2 min p.i.)	Liver (2 min p.i.)	Blood (60 min p.i.)	Heart (60 min p.i.)	Heart/Blood Counts/Gram Ratio (60 min p.i.)	Heart/Liver Counts/Gram Ratio (60 min p.i.)	Liver (60 min p.i.)	SMILES
18.6 % Injected dose/organ	0.37 % Injected dose/organ	0.33	0.58	9.83 % Injected dose/organ	1.14 % Injected dose/organ	0.04 % Injected dose/organ	0.5	0.26	1.95 % Injected dose/organ	C1OCC(CP(CCP(CC2COCO2)CC2COCO2)CC2COCO2)O1 (centres unmarked) [Compound 21]
8.75 % Injected dose/organ	1.23 % Injected dose/organ	2.26	0.95	18.6 % Injected dose/organ	1.64 % Injected dose/organ	1.15 % Injected dose/organ	11.5	1.40	11.5 % Injected dose/organ	CCCOCCP(CCOC)CCP(CCOC)CCOCCC (centres unmarked) [Compound 29]
15.4 % Injected dose/organ	0.41 % Injected dose/organ	0.41	0.98	5.80 % Injected dose/organ	1.02 % Injected dose/organ	0.05 % Injected dose/organ	0.7	0.39	1.54 % Injected dose/organ	COCC(C)CP(CCP(CC(C)COC)CC(C)COC)CC(C)COC (centres unmarked) [Compound 14]
12.4 % Injected dose/organ	0.82 % Injected dose/organ	0.99	0.35	29.7 % Injected dose/organ	3.25 % Injected dose/organ	0.54 % Injected dose/organ	2.62	0.63	12.0 % Injected dose/organ	CCOCCP(CCOCC)c1ccccc1P(CCOCC)CCOCC [Compound 37]
7.14 % Injected dose/organ	1.01 % Injected dose/organ	1.95	0.50	24.50 % Injected dose/organ	1.52 % Injected dose/organ	0.81 % Injected dose/organ	7.9	0.69	14.90 % Injected dose/organ	CCOC(CCP(CCC(OCC)OCC)CCP(CCC(OCC)OCC)CCC(OCC)OCC)OCC [Compound 20]
24.2 % Injected dose/organ	0.58 % Injected dose/organ	0.37	0.24	35.1 % Injected dose/organ	5.78 % Injected dose/organ	0.41 % Injected dose/organ	1.0	0.14	36.0 % Injected dose/organ	CCOCC(COCC)CP(CCP(CC(COCC)COCC)CC(COCC)COCC)CC(COCC)COCC [Compound 18]
11.7 % Injected dose/organ	0.70 % Injected dose/organ	1.04	0.39	25.2 % Injected dose/organ	1.63 % Injected dose/organ	0.48 % Injected dose/organ	4.7	0.63	9.72 % Injected dose/organ	CCC(CP(CCP(CC(CC)OC)CC(CC)OC)CC(CC)OC)OC (centres unmarked) [Compound 12]
10.8 % Injected dose/organ	1.05 % Injected dose/organ	1.45	0.73	18.8 % Injected dose/organ	2.18 % Injected dose/organ	0.73 % Injected dose/organ	5.69	1.62	6.64 % Injected dose/organ	CCOCCP(CCOCC)CC(CP(CCOCC)CCOCC)OC [Compound 36]
